For 15 compounds, TGI and GI50 results are on record in PubChem BioAssay (NCI).

For orientation: TGI means the concentration at which net growth stops. A high value points to lower sensitivity of the cells. What is called GI50 is the concentration giving 50% growth inhibition.

Values joined by “and” are separate entries in the source; they are usually repeats but may differ in a detail not shown here. Equal entries are not always repeated.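 Five compound concentrations were applied to cells in 96-well plates for 48 hours; endpoints were derived by simple linear interpolation of the resulting dose-response curve. GI50: concentration for 50% inhibition of growth. TGI denotes the concentration required for complete inhibition of growth.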

Some test systems named below: HCT-116 colon; UO-31 renal; UACC-62 melanoma; CAKI-1 renal; SR leukemia; SK-MEL-2 melanoma; SK-MEL-5 melanoma; SN12C renal; MDA-N.
Common to all, as to assay: DTP human tumour cell line panel, 48 h

For the compound `C=C(C)[C@@]1(O)O[C@H]2C[C@@]3(C)OC(=CC3=O)/C(C)=C\[C@@H]3OC(=O)[C@@]1(C)[C@H]32`, the TGI was 20.6 µM in the experiment on HCT-116 colon; 57 µM with UO-31 renal; 35.7 µM in the experiment on UACC-62 melanoma; 42.9 µM in the experiment on CAKI-1 renal; > 64.4 µM with SR leukemia; > 56.3 µM in the experiment with SK-MEL-2 melanoma. Also, the total growth inhibition concentration (TGI) in the experiment with SK-MEL-5 melanoma worked out at 30.5 µM; in the experiment with SN12C renal, 34.9 µM.
With `COC(=O)c1c2c(cc3c1CC1(Cc4ccccc4C1=O)C3)CCC2` (stereo unspecified), the TGI with HCT-116 colon is > 100 µM; in the experiment with UO-31 renal, > 100 µM; in the experiment on CAKI-1 renal, > 100 µM; in the experiment on SR leukemia it was 58.5 µM; with SK-MEL-2 melanoma, > 100 µM; in the experiment on SK-MEL-5 melanoma, 29.5 µM. Moreover, the TGI in the experiment on MDA-N was 34.2 µM; in the experiment on SN12C renal it was > 100 µM.
Take `COc1c2cc([N+](=O)[O-])cc1CNC(=O)CN1CCOCCOCCN(CCOCCOCC1)CC(=O)NC2`: the TGI with HCT-116 colon, in the experiment on UO-31 renal, in the experiment with UACC-62 melanoma, with CAKI-1 renal, in the experiment on SK-MEL-2 melanoma and with SK-MEL-5 melanoma was > 100 µM throughout. The concentration for total growth inhibition (TGI) in the experiment on MDA-N and with SN12C renal was > 100 µM throughout.
Consider `CNC(=O)c1ccccc1-[s+]1c2ccccc2c(=O)n1C` (stereo unspecified), for which the TGI in the experiment with HCT-116 colon, with UO-31 renal, in the experiment on UACC-62 melanoma, in the experiment with CAKI-1 renal, in the experiment with SK-MEL-2 melanoma and in the experiment on SK-MEL-5 melanoma was > 100 µM throughout. Further, the TGI with MDA-N and in the experiment on SN12C renal was > 100 µM in each case.
For `CCC(C)[C@@H](NCc1ccccc1)[C@H](OCc1ccccc1)[C@@H]1COC(C)(C)O1` (stereo partly specified), the TGI in the experiment on HCT-116 colon worked out at 29.2 µM; in the experiment with UO-31 renal, 41.3 µM; in the experiment with UACC-62 melanoma it was 42.3 µM; in the experiment with SR leukemia, 60.5 µM; in the experiment with SK-MEL-2 melanoma, 35 µM; in the experiment on SK-MEL-5 melanoma, 29 µM. The TGI in the experiment with MDA-N is > 100 µM; in the experiment on SN12C renal, 49 µM.
With `O=C(Cc1ccccc1)NCCc1ccc(O)c(O)c1`, the TGI was > 100 µM in the experiment on HCT-116 colon; > 100 µM in the experiment with UO-31 renal; > 100 µM in the experiment on UACC-62 melanoma; 73.3 µM in the experiment on SR leukemia; 80.1 µM in the experiment on SK-MEL-2 melanoma; > 100 µM in the experiment on SK-MEL-5 melanoma. Moreover, the TGI in the experiment on MDA-N is 34.9 µM; in the experiment on SN12C renal, > 100 µM.
As to `CC1=NN(c2nc(N)nc(-c3ccccc3S(N)(=O)=O)n2)C(C)(C)C1`, the TGI was > 100 µM with HCT-116 colon; > 100 µM with UO-31 renal; > 100 µM in the experiment on CAKI-1 renal; 68.5 µM in the experiment on SR leukemia; 57 µM with SK-MEL-2 melanoma; > 100 µM in the experiment on SK-MEL-5 melanoma. For the same compound, the TGI in the experiment on MDA-N is > 100 µM.
`O=C(COc1ccc(OCC(=O)N2C(=O)CC(=O)N(c3ccccc3)C2=S)cc1)N1C(=O)CC(=O)N(c2ccccc2)C1=S`: the TGI in the experiment on HCT-116 colon was 60.1 µM; in the experiment on UO-31 renal, > 100 µM; in the experiment with UACC-62 melanoma, > 100 µM; with CAKI-1 renal it was > 100 µM; with SK-MEL-2 melanoma it was > 100 µM; in the experiment on MDA-N, > 100 µM. Further, the TGI with SN12C renal was > 100 µM.
For `Cc1[nH]c2ncn(/N=C/c3ccccc3O)c(=N)c2c1Cc1ccccc1`, the TGI is > 100 µM with HCT-116 colon; > 100 µM in the experiment on UO-31 renal; > 100 µM with UACC-62 melanoma; > 100 µM in the experiment with CAKI-1 renal; 83.9 µM in the experiment on SK-MEL-2 melanoma; 93.8 µM with MDA-N. Moreover, the TGI in the experiment on SN12C renal was > 100 µM.
For `COC(=O)N1CC2(CO)C3CC=C(C(=O)Nc4ccccc4Br)C2C1C3Br` (stereo unspecified), the TGI with UO-31 renal, in the experiment with UACC-62 melanoma, in the experiment with CAKI-1 renal, in the experiment with SR leukemia, with SK-MEL-2 melanoma and in the experiment with SK-MEL-5 melanoma was > 50 µM throughout. For the same compound, the TGI with MDA-N was > 50 µM.
With `c1ccc(CNC2CC(NCc3ccccn3)CC(NCc3ccccn3)C2)nc1` (stereo unspecified), the GI50 is 1.86 µM in the experiment on HCT-116 colon; 2.3 µM and 4.72 µM and 1.83 µM in the experiment with UACC-62 melanoma; 4.6 µM and 16.3 µM and 4.35 µM in the experiment on CAKI-1 renal; 3.4 µM in the experiment with SK-MEL-2 melanoma; 1.88 µM in the experiment with SK-MEL-5 melanoma; 2.22 µM in the experiment with MDA-N. The total growth inhibition concentration (TGI) in the experiment with HCT-116 colon was 5.27 µM and 7.2 µM and 3.68 µM; in the experiment with UO-31 renal it was 70.8 µM and > 25 µM and > 100 µM; in the experiment on UACC-62 melanoma, 5.27 µM and 12.1 µM and 3.53 µM; in the experiment with CAKI-1 renal, 28 µM and 25 µM and 17.2 µM; in the experiment with SK-MEL-2 melanoma, 6.86 µM and 11.5 µM and 12.2 µM; with SK-MEL-5 melanoma it was 5.52 µM and 7.49 µM and 3.68 µM. For the same compound, the TGI is 12.5 µM and 11.3 µM and 4.78 µM in the experiment on MDA-N; 20.8 µM and 13.6 µM and 17.7 µM in the experiment with SN12C renal.
For `Cc1ccc(C)n1-c1ccccc1C1SCCCS1`, the concentration for total growth inhibition (TGI) in the experiment with HCT-116 colon, in the experiment with UO-31 renal, in the experiment with UACC-62 melanoma, with CAKI-1 renal, in the experiment on SK-MEL-2 melanoma and in the experiment with SK-MEL-5 melanoma was > 100 µM each time. For the same compound, the TGI with MDA-N and in the experiment on SN12C renal was > 100 µM each time.
In the case of `Cc1c2cc[nH]c(C(F)(F)F)c2cc2c1nc1ccccc12`, the TGI in the experiment with HCT-116 colon, in the experiment with UO-31 renal, in the experiment on UACC-62 melanoma, in the experiment with CAKI-1 renal, in the experiment on SK-MEL-2 melanoma and in the experiment with SK-MEL-5 melanoma was > 125 µM in each case. Moreover, the TGI with SN12C renal was > 125 µM.
`C1CC2=C(C1)[Se]C(=C1Sc3nsnc3S1)[Se]2`: the TGI with HCT-116 colon, in the experiment on UO-31 renal, in the experiment with UACC-62 melanoma, in the experiment on CAKI-1 renal, in the experiment with SK-MEL-2 melanoma and in the experiment with SK-MEL-5 melanoma was > 100 µM in each case. Besides, the TGI with MDA-N was 62 µM; in the experiment on SN12C renal it was > 100 µM.
With `Clc1ccc2c(SCC3CO3)c3ccccc3nc2c1` (stereo unspecified), the TGI in the experiment on HCT-116 colon was 3.04 µM; in the experiment on UO-31 renal, 3.34 µM; with UACC-62 melanoma, > 100 µM; in the experiment on CAKI-1 renal, 2.88 µM; in the experiment on SR leukemia, 4.56 µM; with SK-MEL-2 melanoma it was 8.11 µM. Further, the TGI stood at 9.07 µM in the experiment with SK-MEL-5 melanoma and 7.35 µM in the experiment with SN12C renal.
